Source: patent US12692463B2, “Blends of alcohol ethoxylate and methyl ester sulfonate in unit dose products for improved mildness” (Henkel AG & Co. KGaA, priority 2023, dated 2026)

Assay: Percent swelling of water-soluble film strips submerged in detergent formula
Type: physicochemical
Details: Minitab mixture regression on solvent component proportions, Formulas 7-16
Experimental: The term % swelling as used in the present application means the percent increase or decrease in weight, for example the weight of a pouch strip, such as a polyvinyl alcohol strip, following submersion in a detergent composition for a given period of time, for example twenty-four hours (hr). The % swelling is calculated as described in the examples by taking a post-soaking weight, subtracting an initial, pre-soaking weight, and dividing by the initial, pre-soaking weight. To measure the percent (%) swelling, a fresh sheet of film was traced and cut into three identical film strips (3 cm wide by 8.5 cm long) for each formula being tested. Strips were labeled #1, #2, and #3 and placed into a tared petri dish one by one, recording the weights of each piece of film individually. Strips #1 and #2 were placed parallel to one another on the bottom of the petri dish and strip #3 was laid perpendicularly over strips #1 and #2. The petri dish was then filled half way, ensuring all film strips were submerged in the formula being tested. The petri dish was wrapped with parafilm, sealing around the edge of the petri dish. […] The cleaned film strip #3 was placed into a clean, tared petri dish lid, and the final weight of the film strip was recorded. […] Percent (%) swelling ratios were determined for Formulas 7-16 using polyvinyl alcohol (PVA) strips. […]

estimated regression coefficient for % swelling | Compound
0.8037 | OCC(O)CO [Glycerin]
0.4263 | CC(O)CO (centres unmarked) [PG, Propylene Glycol]
